{
  "source": "paper PMC11189555",
  "about": "“Aryl amino acetamides prevent Plasmodium falciparum ring development via targeting the lipid-transfer protein PfSTART1” (Nature Communications, 2024)",
  "test_system": "CR-N330K parasites",
  "experiment": "Growth inhibition assay (72 h, LDH activity)",
  "format": "cell-based, Plasmodium falciparum",
  "conditions": "for inhibition at up to 5 µM: dilution point 5 of 10, read-out: Growth inhibition assay, NORMALISED",
  "method": "Parasite growth assays with inhibitory compounds were performed as per[11] and are fully described in the Supplementary Information.\nMolecular biology and transfection of P. falciparum: CRISPR method.\nThe full 5’ homology region of pfstart1 (either WT, N309K or N330K) was amplified from pPfSTART1-HA-2A-Neo-glmS with the same 5’ BglII primer and a new 3’ primer that replaced with PstI with SpeI and introduced a stop codon. The PCR product was then digested with BglII and SpeI and inserted into similarly digested p1.2 parasite vector2. The p1.2 vector had previously been inserted with a homology region amplified from the 3’ end of the pfstart1 gene (3’HB) to form a second homology block for double recombination. The primers used to amplify 3’HB are listed primers listed in […]\n60 μg of p1.2-PfSTART1(WT/N309K/N330K) plasmid was linearised with KasI, precipitated in 3 M sodium acetate and ethanol (70% final concentration) overnight at -20°C. The DNA pellet was washed in cold 70% ethanol and resuspended in cytomix 3.\n50 μ M of crRNA ( Table S 2) and 50 μM of tracRNA (Integrated DNA Technologies) were allowed to form a duplex (5 min at 95°C), and Cas9 enzyme (Integrated DNA Technologies) was added, and incubated for 20 min at room temperature 4. This crRNA -tracRNA -Cas9 mix was added to each DNA preparation and transfected to 3D7 ring parasites using the Bio -Rad Gene Pulser at 310 V and 950 μF.\nParasites containing the transfected DNA were selected using 2.5 nM WR99210 (Jacobus). Parasites lines were cloned using limiting dilution. Correct integration was tested by PCR (using primer START_5’UTR.F and START_Int.R1 , Table S 2), and sequencing was done using the primers START_3F and START_Int.R2 (Table S 2).\nGrowth inhibition assays. Synchronised ring-stage parasites (0.3-0.6% parasitemia, 2% haematocrit) were grown for 72 h in a serial-dilution of the compound under […]\nand compound 4. Note that M-833 was first purchased from MolPort (MolPort -002-267-916) then made in-house at WEHI: the differences observed in EC50s across experiments are attributed to the different batches of M -833. For some experiments, 0, 0.25 or 2.5 mM of glucosamine (GlcN) was also added. Experiments were set up in technical duplicates or triplicates. Following a freeze -thaw cycle, lactate dehydrogenase (LDH) activity was assessed as an indicator of parasite growt h 5. 30 μL of parasite culture was incubated for 30 min in the dark with 75 μL Malstat mixture (0.1 M Tris pH 9.0, 20 g/L lactic acid, pH 7.5, 0.2% Triton-X100, 0.5 g/L acetylpyridine adenine dinucleotide (APAD, Sigma), 200 μg/mL nitroblue tetrazolium (NBT; Sigma), 1 μg/mL phenozine ethosulfate (PES; Sigma)). Absorbance was then measured at 650 nm, transformed using the formula below, plotted against the logarithm of the concentrations, and a non-linear regression (log(inhibitor) vs. response, variable slope) was calculated using GraphPad Prism to assess the half-inhibitory […]\nGrowth inhibition % = (1 − average(sample)− average(uRBC)) ∗ 100 […]\nThe DMSO samples were also used to assess growth of parasite in the presence of 0.25 and 2.5 mM GlcN (normalised by DMSO in 0 mM GlcN).\nEgress, invasion & recovery assay. To measure egress, invasion and follow up recovery in the presence of different compounds, we adapted the method developed in6, using Hyp1-Nluc parasites7. These parasites episomally express the exported PEXEL protein Hyp1 (PF3D7_0113300) tagged with a NanoLuc luciferase (NLuc) and were selected with 2.5 nM WR99210 (Jacobus). Highly synchronised schizonts were obtained using ML10 (LifeArc) and sorbitol synchronisation, and Percoll-purified (the culture was gently layered over 67% Percoll (Cytiva) in RPMI, and centrifuged for 15 min at 1500 g and the schizont layer was collected and washed). In a 96-well plate, […]",
  "note": "Where “and” joins values, the source holds several entries; their conditions need not be identical. Equal entries are not always repeated. Where two headings read alike, the source gives them in different places.",
  "data": [
    {"smiles": "CC(C)(Nc1ccc(Cl)c(S(=O)(=O)N2CCOCC2)c1)C(=O)Nc1ccc(F)c(Cl)c1", "note": "[W-991]", "values": [
      {"measurement": "NORMALISED (growth inhibition, LDH absorbance)", "setting": "2.5 mM GlcN, dilution point 9 of 10 from starting concentration 5 uM", "result": "10.3592 and 12.8289"},
      {"measurement": "fold less susceptible than the 3D7 and CR-WT controls", "setting": "Fig 4C", "result": "around 600 fold"},
      {"measurement": "fold sensitised on PfSTART1 knock-down with GlcN", "setting": "Fig 4C", "result": 7.3, "unit": "fold"},
      {"measurement": "EC50", "setting": "Fig 4C, 0 mM GlcN, n = 3, read-out: EC50 W-991 (95% confidence interval)", "result": "< 700", "unit": "nM"},
      {"measurement": "inhibition at 5 µM", "setting": "Plasmodium falciparum, 0 mM GlcN, dilution point 1 of 10, starting concentration 5 uM, read-out: NORMALISED (growth inhibition, LDH absorbance)", "result": 84.5, "unit": "%"},
      {"measurement": "inhibition", "setting": "Plasmodium falciparum, 0 mM GlcN, starting concentration 5 uM, dilution point 1 of 10, read-out: Growth inhibition assay, NORMALISED", "result": 90.1, "unit": "%"},
      {"measurement": "inhibition", "setting": "Plasmodium falciparum, 0 mM GlcN, starting concentration 5 uM, dilution point 3 of 10, read-out: Growth inhibition assay, NORMALISED", "result": 50.4, "unit": "%"},
      {"measurement": "inhibition", "setting": "Plasmodium falciparum, 0 mM GlcN, starting concentration 5 uM, dilution point 4 of 10, read-out: Growth inhibition assay, NORMALISED", "result": 20.2, "unit": "%"},
      {"measurement": "inhibition at up to 5 µM", "setting": "Plasmodium falciparum, 0 mM GlcN, starting concentration 5 uM", "result": 14.5, "unit": "%"},
      {"measurement": "inhibition", "setting": "Plasmodium falciparum, 0 mM GlcN, starting concentration 5 uM, dilution point 6 of 10, read-out: Growth inhibition assay, NORMALISED", "result": 9.02, "unit": "%"},
      {"measurement": "inhibition", "setting": "Plasmodium falciparum, 0 mM GlcN, starting concentration 5 uM, dilution point 7 of 10, read-out: Growth inhibition assay, NORMALISED", "result": 9.74, "unit": "%"},
      {"measurement": "inhibition", "setting": "Plasmodium falciparum, 0 mM GlcN, starting concentration 5 uM, dilution point 8 of 10, read-out: Growth inhibition assay, NORMALISED", "result": 9.24, "unit": "%"},
      {"measurement": "inhibition", "setting": "Plasmodium falciparum, 0 mM GlcN, starting concentration 5 uM, dilution point 9 of 10, read-out: Growth inhibition assay, NORMALISED", "result": 12.9, "unit": "%"},
      {"measurement": "inhibition", "setting": "Plasmodium falciparum, 0 mM GlcN, starting concentration 5 uM, dilution point 10 of 10, read-out: Growth inhibition assay, NORMALISED", "result": 5.95, "unit": "%"},
      {"measurement": "inhibition at 5 µM", "setting": "Plasmodium falciparum, 0.25 mM GlcN, dilution point 1 of 10, starting concentration 5 uM, read-out: NORMALISED (growth inhibition, LDH absorbance)", "result": 86.4, "unit": "%"},
      {"measurement": "inhibition at 5 µM", "setting": "Plasmodium falciparum, 0.25 mM GlcN, starting concentration 5 uM, dilution point 1 of 10, read-out: Growth inhibition assay, NORMALISED", "result": 87.6, "unit": "%"},
      {"measurement": "inhibition at 5 µM", "setting": "Plasmodium falciparum, 0.25 mM GlcN, starting concentration 5 uM, dilution point 2 of 10, read-out: Growth inhibition assay, NORMALISED", "result": 84.3, "unit": "%"},
      {"measurement": "inhibition at 5 µM", "setting": "Plasmodium falciparum, 0.25 mM GlcN, starting concentration 5 uM, dilution point 3 of 10, read-out: Growth inhibition assay, NORMALISED", "result": 66.9, "unit": "%"},
      {"measurement": "inhibition at 5 µM", "setting": "Plasmodium falciparum, 0.25 mM GlcN, starting concentration 5 uM, dilution point 4 of 10, read-out: Growth inhibition assay, NORMALISED", "result": 35.9, "unit": "%"},
      {"measurement": "inhibition at 5 µM", "setting": "Plasmodium falciparum, 0.25 mM GlcN, starting concentration 5 uM, dilution point 6 of 10, read-out: Growth inhibition assay, NORMALISED", "result": 2.77, "unit": "%"},
      {"measurement": "inhibition at 5 µM", "setting": "Plasmodium falciparum, 0.25 mM GlcN, starting concentration 5 uM, dilution point 7 of 10, read-out: Growth inhibition assay, NORMALISED", "result": 9.45, "unit": "%"},
      {"measurement": "inhibition at 5 µM", "setting": "Plasmodium falciparum, 0.25 mM GlcN, starting concentration 5 uM, dilution point 8 of 10, read-out: Growth inhibition assay, NORMALISED", "result": 11.2, "unit": "%"},
      {"measurement": "inhibition at 5 µM", "setting": "Plasmodium falciparum, 0.25 mM GlcN, starting concentration 5 uM, dilution point 9 of 10, read-out: Growth inhibition assay, NORMALISED", "result": 16.2, "unit": "%"},
      {"measurement": "inhibition at 5 µM", "setting": "Plasmodium falciparum, 0.25 mM GlcN, starting concentration 5 uM, dilution point 10 of 10, read-out: Growth inhibition assay, NORMALISED", "result": 6.13, "unit": "%"},
      {"measurement": "inhibition", "setting": "Plasmodium falciparum, 2.5 mM GlcN, starting concentration 5 uM, dilution point 1 of 10, read-out: Growth inhibition assay, NORMALISED", "result": 33.9, "unit": "%"},
      {"measurement": "inhibition", "setting": "Plasmodium falciparum, 2.5 mM GlcN, starting concentration 5 uM, dilution point 2 of 10, read-out: Growth inhibition assay, NORMALISED", "result": 33.5, "unit": "%"},
      {"measurement": "inhibition", "setting": "Plasmodium falciparum, 2.5 mM GlcN, starting concentration 5 uM, dilution point 3 of 10, read-out: Growth inhibition assay, NORMALISED", "result": 23.8, "unit": "%"},
      {"measurement": "inhibition", "setting": "Plasmodium falciparum, 2.5 mM GlcN, starting concentration 5 uM, dilution point 4 of 10, read-out: Growth inhibition assay, NORMALISED", "result": 10.8, "unit": "%"},
      {"measurement": "inhibition at up to 5 µM", "setting": "Plasmodium falciparum, 2.5 mM GlcN, starting concentration 5 uM", "result": -13.2, "unit": "%"},
      {"measurement": "inhibition", "setting": "Plasmodium falciparum, 2.5 mM GlcN, starting concentration 5 uM, dilution point 6 of 10, read-out: Growth inhibition assay, NORMALISED", "result": -23.5, "unit": "%"},
      {"measurement": "inhibition", "setting": "Plasmodium falciparum, 2.5 mM GlcN, starting concentration 5 uM, dilution point 7 of 10, read-out: Growth inhibition assay, NORMALISED", "result": -34.6, "unit": "%"},
      {"measurement": "inhibition", "setting": "Plasmodium falciparum, 2.5 mM GlcN, starting concentration 5 uM, dilution point 8 of 10, read-out: Growth inhibition assay, NORMALISED", "result": -22.6, "unit": "%"},
      {"measurement": "inhibition", "setting": "Plasmodium falciparum, 2.5 mM GlcN, starting concentration 5 uM, dilution point 9 of 10, read-out: Growth inhibition assay, NORMALISED", "result": -27.3, "unit": "%"},
      {"measurement": "inhibition", "setting": "Plasmodium falciparum, 2.5 mM GlcN, starting concentration 5 uM, dilution point 10 of 10, read-out: Growth inhibition assay, NORMALISED", "result": -18.7, "unit": "%"},
      {"measurement": "EC50", "setting": "Plasmodium falciparum, read-out: EC50 W-991 (95% confidence interval), Fig 4C, 0 mM GlcN, n = 3", "result": 623, "unit": "nM"},
      {"measurement": "EC50", "setting": "Plasmodium falciparum, read-out: EC50 W-991 (95% confidence interval), Fig 4C, 0.25 mM GlcN, n = 3", "result": 336, "unit": "nM"},
      {"measurement": "EC50", "setting": "Plasmodium falciparum, read-out: EC50 W-991 (95% confidence interval), Fig 4C, 2.5 mM GlcN, n = 3", "result": 85.3, "unit": "nM"},
      {"measurement": "EC50", "setting": "read-out: EC50 W-991 (95% confidence interval), Fig 4C, 0 mM GlcN, n = 3", "result": 623, "unit": "nM"}
    ]}
  ]
}
